Experimental data taken from patent US8445467B2, “Reducing risk of type 2 diabetes (T2D)” (Joslin Diabetes Center, Inc., priority 2006, dated 2013).
Where “and” joins values, the source holds several entries; their conditions need not be identical. Identical values can stand only once. Entries after “also recorded” stand apart in the source; their conditions may differ.

Columns and labels:
[1] = system: overweight non-diabetic adults; assay: Safety and tolerability in the trial
cyclooxygenase enzymes = details: cited from earlier work
[2] = system: overweight non-diabetic adults; assay: Glycemia (fasting glucose, OGTT, glycated albumin) in double-masked placebo controlled trial; type: in vivo, human
Source text: (§1) The ability of high doses of systemic salsalate to reduce systemic inflammation and improve metabolic parameters was investigated in a double-masked placebo controlled trial of 20 overweight non-diabetic adults (age: 24 yrs±1, gender 17F/3M, BMI 38 kg/m^2±2), evaluated at baseline and after one month of dally administration of oral salsalate 4 g or placebo.
Subjects were under 30 years old, and obese as defined by a body mass Index (BMI) of ≧ 30 kg/m^2 Participants were excluded for recent blood donation, change in weight of more than 5% in the preceding six months or use of medication known to alter weight, acute febrile illness, biochemical evidence of renal or hepatic dysfunction, aspirin allergy, history of gastritis or gastrointestinal bleeding, current medications known to altar glucose metabolism, or diabetes mellitus based on screening evaluation. Female participants were excluded for pregnancy, lactation, or lack of current use of a hormonal or barrier contraceptive method.
(§2) Participants were instructed to consume a standard high-carbohydrate diet (250-300 grams/day) and abstain from strenuous exercise for three days prior to undergoing, baseline and final evaluations. Subjects were additionally instructed not to alter dietary or exercise habits daring the study Blood pressure was measured twice with the patient supine for 10 minutes. Fasting lipids and cytokines were measured, and oral glucose tolerance tests (OGTT) were performed with glucose, insulin, C-peptide and free fatty acid levels measured prior to and 30, 60, 90 and 120 minutes after 75-gram glucose load. All subjects were non-diabetic based on current American Diabetes Association guidelines (Diagnosis and Classification of Diabetes Mellitus. Diabetes Care 28:S37-S42 (2005)). AUC data were calculated by triangulation. Insulin resistance was determined using homeostasis model assessment (HOMA-IR) for insulin and C-peptide as described using the modified formula: HOMA-IRC-peptide=(fasting C-peptide*fasting glucose)/22.5 See, e.g., Matthews et al, Diabetologia 28:41.2-419 (1985); Wallace et al., Diabetes Care 27; 1487-4495 (2004).
(§3) Compliance was evaluated with blood salicylate levels.
(§4) Glucose was measured by glucose oxidation, cholesterol and HDL by cholesterol esterase assay, triglycerides via hydrolysis to glycerol and FFA (Beckman Synchron CX3delta and CX9, Beckman Coulter, Brea, Calif.), and glycohemoglobin by HPLC (TOSHO 2.2™, Tosoh Bioscience, San Francisco, Calif.). Immunoassays were performed in duplicate on serum specimens by commercial assay including RIA for insulin and C-peptide (Diagnostic Systems Laboratories, Webster, Tex.), and adiponectin (Linco research, St. Charles, Mo., USA); ELISA for free fatty acids (WAKO chemicals, Richmond, Va., USA), and IL-6 and VCAM-1 (R& D Systems, Minneapolis, Minn., USA). CRP was analysed by immunoturbidometry (WAKO chemicals, Richmond, Va., USA), Salicylate levels were assessed commercially using a colorimetric assay (Quest Laboratories, Cambridge, Mass., USA). Glycated albumin was evaluated with the use of a Hitachi 911 lipid and protein analyzer and kits from AsahiKasei (Tokyo, JP). Glycated albumin was calculated by determining (1) the colorimetric measurement of total, albumin; (2) partial enzymatic digestion of albumin at glycated sites; (3) re-assessment of albumin; (4) % glycated albumin=1-3.
The primary endpoint was change from, baseline in glycemic measures using between group comparisons. Secondary outcomes were also assessed as change from baseline within group. Data are presented as mean±standard error unless otherwise noted. Unpaired (salsalate vs. placebo) and paired (pre vs. post) Student t-tests were performed. Treatment effects were determined by calculating differences between baseline sad end of treatment values divided by the baseline value to determine a percent change for each participant. […]

[3] = system: overweight non-diabetic adults; assay: Insulin, C-peptide and HOMA-IR in double-masked placebo controlled trial; type: in vivo, human
Source text: as §1, §2, §3, §4
(§5) The primary endpoint was change from, baseline in glycemic measures using between group comparisons. Secondary outcomes were also assessed as change from baseline within group. Data are presented as mean±standard error unless otherwise noted. Unpaired (salsalate vs. placebo) and paired (pre vs. post) Student t-tests were performed. Treatment effects were determined by calculating differences between baseline sad end of treatment values divided by the baseline value to determine a percent change for each participant. Repeated measures of ANOVA and area under curve analyses were performed to compare response to oral glucose load before and after treatment. Only subjects completing the trial were included in data analysis. Results were considered significant with two-tailed p-values <0.05.

[4] = system: overweight non-diabetic adults; assay: Cytokines, adipokines and inflammatory markers pre- and post-one month of therapy; type: in vivo, human
Procedure: as §1, §4, §5
To evaluate the proposed anti-inflammatory mechanism of action for improvement in glycemia, cytokines and adipokines were assessed pre- and post-one month of therapy in the same population described in Example 1.

IKKβ/NF-κB = details: cited from earlier work
[5] = over the one-month period, p>0.1
[6] = following one month of salsalate therapy

## O=C(Oc1ccccc1C(=O)O)c1ccccc1O [salsalate, 2-hydroxybenzoE acid, 2-carboxyphenyl ester]
[1]; actively treated participants after dose reduction
  reduced dose tolerated without symptoms (individual participants): 3.5 grams per day and 3.0 grams per day
[1]; actively treated, resolved spontaneously
  participants with transient mild transaminitis at the final visit: two
[1]; during the trial
  changes in anion gap: no noted changes
  changes in laboratory analysis of electrolytes: no noted changes
  changes in laboratory analysis of renal function: no noted changes
[1]; final visit, resolved spontaneously
  ALT/AST elevation in individual actively treated participants: similarly mild elevation in both ALT and AST; also recorded: less than twice the upper range of normal
[1]; initiated on 4.0 grams/day orally in two equal doses, on study medication
  participants requiring dose reduction due to complaints of tinnitus, headache or dizziness: Two
[1]; one month, 4 g daily
  symptomatic hypoglycemia: No symptomatic hypoglycemia
[1]; [5]
  change in mean alanine aminotransferase (ALT): no statistically significant change
  change in mean aspartate aminotransferase (AST): no statistically significant change
[1]; participants with rash on active therapy
  respiratory distress: No respiratory distress
[1]; received active therapy
  participants withdrawn due to rash: three
Cyclooxygenase enzymes
  inhibition of cyclooxygenase enzymes compared to aspirin: much weaker inhibitor
[2]
  fasting glucose compared to placebo (FIG. 1A): reduced
  glycated albumin compared to placebo (FIG. 1A): reduced
  post oral glucose challenge glucose area under the curve compared to placebo (FIG. 1A): reduced
[2]; after one month of salsalate, baseline 5.0±0.2, p<0.03
  fasting plasma glucose level after treatment: 4.6 ± 0.1 mmol/L
[2]; after one month of salsalate, baseline 12.4±0.4%, p<0.003
  glycated albumin after treatment: 10.3±0.3%
[2]; oral salsalate 4 g daily, one month, 75 g oral glucose, placebo increased by 6±3%, p=0.003
  reduction in glucose area under the curve during oral glucose tolerance testing: 14±5%
[2]; oral salsalate 4 g daily, one month, mean±SE, placebo increase of 5±2%, p<0.002
  reduction in fasting glucose, change from baseline: 8±4%
[2]; oral salsalate 4 g daily, one month, placebo 0.6±0.9%, p<0.002
  reduction in glycated albumin, change from baseline: 17±4%
[2]; within group, one month of salsalate, repeated measure analysis p<0.01
  glycemia response to glucose load: improvements in glycemia; also recorded: improved
[3]; after one month of salsalate, baseline 1.6±0.2, p=0.02
  fasting C-peptide levels after treatment: 1.1 ± 0.2 nmol/L
[3]; one month of salsalate, placebo increase of 4±7%, p=0.02
  reduction in C-peptide AUC post glucose challenge: 23±4%
[3]; one month of salsalate, placebo increase of 5±6%, p<0.01
  reduction in fasting C-peptide, change from baseline: 30±7%
[3]; one month of salsalate, placebo increased 9±5%, p=0.003
  HOMA IRc peptide lowered by: 35±8%
[3]; post one month of salsalate, pre 4.6±0.9, p=0.9, not significantly changed
  HOMA-IR using insulin, post treatment: 4.2±0.6
[3]; pre vs post one month of salsalate
  fasting insulin values: unchanged
[3]; pre- and post-salsalate, 75 g oral glucose
  insulin levels following glucose challenge: remained unchanged
[3]; salsalate compared to placebo
  insulin sensitivity calculated by HOMA IRc-peptide (FIG. 2C): improvement
[3]; salsalate vs placebo
  C peptide response to Oral Glucose Tolerance Test calculated by AUC (FIG. 2C): significant between group difference
[4]
  adiponectin compared to placebo (FIG. 3A): increased significantly
[4]; after one month of salsalate, baseline 0.46±0.08, p=0.05
  fasting non-esterified fatty acids (FFA) levels after treatment: 0.25±0.05 mEq/L
[4]; after one month of salsalate, baseline 10.6±1.7, p=0.01
  adiponectin after treatment: 16.2 ± 2.7 mg/L
[4]; after one month of salsalate, baseline 48.2±10.5, p=0.05
  CRT concentrations after treatment: 30.2 ± 7.4 nmol/L
[4]; [6]
  II-6: did not change significantly
  soluble VCAM-1: did not change significantly
[4]; one month of salsalate, placebo decreased 1±5%, p=0.003
  adiponectin increase, change from baseline: 56±17%
[4]; p<0.05
  C-reactive protein (CRP) following treatment (FIG. 3B): lower
  Free Fatty Acids (FFA) following treatment (FIG. 3B): lower
IKKβ/NF-κB
  inhibition of IKKβ/NF-κB compared to aspirin: equipotent inhibitor
